Results from publication PMC4822341 (Cell Discovery, 2015).

Assays:
MR = biological target: T1, MR (Homo sapiens, UniProt P08235); experiment: MR reporter assay (off-target activity); type: cell-based; conditions: steroid 1 μM; percent of 1 μM corticosterone
T1 construct: expressed in transfected cells; host or cells: AD293
T1 sequence (P08235 1-984): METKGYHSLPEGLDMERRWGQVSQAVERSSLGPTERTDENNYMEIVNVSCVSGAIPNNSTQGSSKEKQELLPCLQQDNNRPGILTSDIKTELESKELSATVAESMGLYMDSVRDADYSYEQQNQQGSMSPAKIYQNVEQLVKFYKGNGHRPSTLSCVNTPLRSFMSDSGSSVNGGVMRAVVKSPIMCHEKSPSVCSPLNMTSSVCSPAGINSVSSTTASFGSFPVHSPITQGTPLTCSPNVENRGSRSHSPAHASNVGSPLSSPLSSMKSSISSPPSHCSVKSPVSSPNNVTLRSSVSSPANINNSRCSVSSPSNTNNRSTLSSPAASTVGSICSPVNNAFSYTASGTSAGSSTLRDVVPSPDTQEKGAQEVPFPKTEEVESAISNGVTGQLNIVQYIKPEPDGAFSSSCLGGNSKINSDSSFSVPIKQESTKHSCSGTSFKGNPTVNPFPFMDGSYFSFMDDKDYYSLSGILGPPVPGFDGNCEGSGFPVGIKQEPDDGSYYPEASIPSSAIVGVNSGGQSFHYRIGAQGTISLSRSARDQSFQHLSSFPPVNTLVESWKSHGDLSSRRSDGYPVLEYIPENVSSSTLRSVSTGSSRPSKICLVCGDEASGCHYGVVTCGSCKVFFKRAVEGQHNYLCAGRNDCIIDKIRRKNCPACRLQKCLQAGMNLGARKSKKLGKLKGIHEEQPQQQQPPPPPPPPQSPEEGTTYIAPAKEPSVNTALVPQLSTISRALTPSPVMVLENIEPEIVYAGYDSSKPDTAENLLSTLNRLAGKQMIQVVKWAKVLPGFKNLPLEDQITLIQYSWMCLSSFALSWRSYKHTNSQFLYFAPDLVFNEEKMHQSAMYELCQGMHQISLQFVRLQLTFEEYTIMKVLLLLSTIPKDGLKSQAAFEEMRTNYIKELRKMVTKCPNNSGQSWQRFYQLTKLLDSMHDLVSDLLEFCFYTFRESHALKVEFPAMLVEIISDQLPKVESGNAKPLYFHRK
Experimental: Similar to previous reports, for induction 100 ng pHHLuc (MMTV-Luc) plasmid, 0.1 ng pRShGR together with 5 ng phRGtkRenilla were transfected by X-tremeGENE 9 (Roche) into AD293 cells per well in 24-well plate. For transrepression, 10 ng AP-1-Luc or 10ng pNF-κB-luc, 100 ng pRShGR and 5 ng phRGtkRenilla were transfected into AD293 cells per well. We used the same transfection protocol for the MR and PR assays, except of the use of 0.1 ng MR or PR plasmid to substitute GR. One day after transfection, for induction, cells were directly treated by steroids for 16 h; for repression, cells were treated with either PMA at 0.6 ng ml^–1 (for AP-1 reporter) or TNFα at 2 ng ml^–1 (for NF-κB reporter), together with various steroids. Cells were collected by addition of 1× Passive Lysis Buffer (Promega, Madison, WI, USA), and luciferase activity was assayed by the Dual-Glo Luciferase system (Promega). Data were plotted as firefly luciferase activity normalized to Renilla luciferase activity in Relative Luciferase Units.

RAW264.7 cells = experiment: Gene expression (microarray and quantitative PCR) in LPS-stimulated RAW264.7 cells; type: cell-based, mouse; conditions: RAW264.7, LPS, steroid 100 nM
Experimental: Mouse macrophage RAW264.7 cells were grown in 6-well plates to reach 80% confluence. The cells were pretreated with different steroids at 100 nM 1 h before overnight induction of inflammation by 1 μg ml^–1 LPS. Total RNA was isolated using a Qiagen mini RNA extraction kit (Valencia, CA, USA). Complementary DNA was synthesized from total RNA with an Invitrogen Superscript cDNA synthesis kit (Carlsbad, CA, USA). Target genes were quantified with a Power SYBR Green Real-Time PCR kit (Carlsbad, CA, USA) (ABI) in a StepOnePlus real-time PCR instrument (Applied Biosystems, Carlsbad, CA, USA). In every case, GAPDH (glyceraldehyde-3-phosphate dehydrogenase) was used as an internal control and data were analyzed by the ΔΔCt method. The specificity of target primers was tested both in a dissociation (melting) curve (Supplementary Figure S4) and against a water control. Primer sequence information is included in Supplementary Figure S4.
RAW264.7 cells were treated with designated steroids at 100 nM 1 h before overnight LPS stimulation of inflammation. Each treatment was duplicated. The following day, RNA samples were isolated using a Qiagen mini RNA extraction kit and applied to the Agilent Whole Mouse Genome 8x60K gene expression platform. Data were analyzed by the limma package in R program. Heat maps were generated by the HeatMap 2 package. Pathway analysis was done via DAVID Bioinformatics Resources 6.7 (NIAID) and Venn diagrams were generated by BioVenn.

[1] = Insulin-tolerance test and plasma insulin level; conditions: 7 days
Experimental: DBA/1 mice (Taconic) were weighted just before the experiment. After 4 h fasting, mice were i.p. injected with 0.75 U kg^–1 of insulin (Huamlin R). Blood samples were taken from the tail at time 0 (before insulin injection), 15, 30, 45, 60, 90 and 120 min after injection. Plasma glucose levels were measured using an AlphaTrak glucose meter. All data were plotted as percent of glucose level at time 0. Endogenous insulin levels were measured using the Ultra Sensitive Mouse Insulin ELISA kit (Crystal Chem, Downers Groove, IL, USA).

GR = biological target: T2, GR (Homo sapiens, UniProt P04150); experiment: In vitro H3-Dex competition GR ligand-binding assay; conditions: H3-DEX 15 nM, GR cytosol
T2 construct: expressed in transfected cells; host or cells: AD293
T2 sequence (P04150 1-777): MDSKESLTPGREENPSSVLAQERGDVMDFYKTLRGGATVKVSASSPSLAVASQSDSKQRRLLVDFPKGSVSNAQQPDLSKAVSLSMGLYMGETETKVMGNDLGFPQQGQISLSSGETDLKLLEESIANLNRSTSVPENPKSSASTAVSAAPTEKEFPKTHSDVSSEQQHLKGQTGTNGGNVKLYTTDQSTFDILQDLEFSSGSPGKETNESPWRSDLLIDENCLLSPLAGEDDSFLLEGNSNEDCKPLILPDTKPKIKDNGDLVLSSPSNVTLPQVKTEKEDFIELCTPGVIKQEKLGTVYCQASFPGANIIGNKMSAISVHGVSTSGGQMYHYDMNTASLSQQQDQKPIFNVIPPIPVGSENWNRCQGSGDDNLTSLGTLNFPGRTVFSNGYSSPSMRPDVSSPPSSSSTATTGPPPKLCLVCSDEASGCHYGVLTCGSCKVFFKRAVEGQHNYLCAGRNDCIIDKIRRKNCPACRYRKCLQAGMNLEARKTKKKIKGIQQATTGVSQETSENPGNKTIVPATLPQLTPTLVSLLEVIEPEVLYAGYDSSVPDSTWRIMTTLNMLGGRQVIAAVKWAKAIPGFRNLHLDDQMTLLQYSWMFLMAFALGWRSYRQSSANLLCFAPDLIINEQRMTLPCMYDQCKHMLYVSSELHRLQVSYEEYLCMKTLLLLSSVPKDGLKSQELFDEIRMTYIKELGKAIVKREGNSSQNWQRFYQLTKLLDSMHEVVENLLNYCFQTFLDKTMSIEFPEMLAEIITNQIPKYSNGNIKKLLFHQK
From the text: The in vitro GR binding assay is similar to the one described previously. […] Data were plotted as a standard competition curve by GraphPad Prism 5.

SMILES: CON(C)C(=O)C1(OC(=O)c2ccco2)C(C)CC2C3CC(F)C4=Cc5c(cnn5-c5ccccc5)CC4(C)C3(F)C(O)CC21C (stereo not drawn) [VSGC12]
- MR activity (MR): higher MR activity than VSG22 and FP, but a lower activity than MF and a similar activity (difference not statistically significant) as FF
- inhibition activity of pro-inflammatory cytokines (microarray, normalized to DEX) (RAW264.7 cells): much stronger inhibition activity than DEX
- repression activity on pro-inflammatory cytokines by quantitative PCR (RAW264.7 cells): much higher repression activity on IL-1β, IL-6 and IL-33 than FF and DEX
- insulin resistance in insulin-tolerance test ([1]; 0.0625 mg kg^-1 daily): no longer induced insulin resistance
- insulin resistance in insulin-tolerance test ([1]; 0.25 mg kg^-1 daily): still caused insulin resistance, the resistance was much less severe than for FF
- IC50 (GR): 6.1 nM
